Measurements: ChEMBL document CHEMBL3758169, “4-Aminoindazolyl-dihydrofuro[3,4-d]pyrimidines as non-covalent inhibitors of mutant epidermal growth factor receptor tyrosine kinase” (Bioorg Med Chem Lett, 2016)
In brackets after ≈: the same amount, converted by molar mass.

How the values were obtained:
[1] = target: T1, Epidermal growth factor receptor (Homo sapiens, UniProt P00533, L858R/T790M); assay: Inhibition of EGFR T790M/L858R mutant (unknown origin); format: protein assay
[2] = Plasma clearance in iv dosed rat; format: ADME, organism-based
[3] = Efflux ratio of permeability from basolateral to apical side over apical to basolateral side in MDCK cells; format: ADME, cell-based, Canis lupus familiaris; conditions: dog
[4] = Apparent permeability from the apical to basolateral side in MDCK cells; format: ADME, cell-based, Canis lupus familiaris; conditions: dog
[5] = Volume of distribution at steady state in rat; format: ADME, organism-based; conditions: in vivo, read-out: Vdss
[6] = target: T1, Epidermal growth factor receptor; assay: Inhibition of EGFR T790M/L858R mutant autophosphorylation in human H1975 cells; format: cell-based
[7] = Oral bioavailability in rat at 5 mg/kg; format: ADME, organism-based; conditions: in vivo
[8] = Total AUC in rat at 5 mg/kg, po; format: ADME, organism-based; parameters: dose 5 mg/kg, time AUCmax, route oral; conditions: in vivo
Rattus norvegicus = assay: Unbound AUC in rat at 5 mg/kg, po; format: ADME, organism-based; conditions: in vivo
[9] = target: T2, Epidermal growth factor receptor (Homo sapiens, UniProt P00533); assay: Inhibition of wild type EGFR (unknown origin)
Target sequence in this assay (P00533 whole entry): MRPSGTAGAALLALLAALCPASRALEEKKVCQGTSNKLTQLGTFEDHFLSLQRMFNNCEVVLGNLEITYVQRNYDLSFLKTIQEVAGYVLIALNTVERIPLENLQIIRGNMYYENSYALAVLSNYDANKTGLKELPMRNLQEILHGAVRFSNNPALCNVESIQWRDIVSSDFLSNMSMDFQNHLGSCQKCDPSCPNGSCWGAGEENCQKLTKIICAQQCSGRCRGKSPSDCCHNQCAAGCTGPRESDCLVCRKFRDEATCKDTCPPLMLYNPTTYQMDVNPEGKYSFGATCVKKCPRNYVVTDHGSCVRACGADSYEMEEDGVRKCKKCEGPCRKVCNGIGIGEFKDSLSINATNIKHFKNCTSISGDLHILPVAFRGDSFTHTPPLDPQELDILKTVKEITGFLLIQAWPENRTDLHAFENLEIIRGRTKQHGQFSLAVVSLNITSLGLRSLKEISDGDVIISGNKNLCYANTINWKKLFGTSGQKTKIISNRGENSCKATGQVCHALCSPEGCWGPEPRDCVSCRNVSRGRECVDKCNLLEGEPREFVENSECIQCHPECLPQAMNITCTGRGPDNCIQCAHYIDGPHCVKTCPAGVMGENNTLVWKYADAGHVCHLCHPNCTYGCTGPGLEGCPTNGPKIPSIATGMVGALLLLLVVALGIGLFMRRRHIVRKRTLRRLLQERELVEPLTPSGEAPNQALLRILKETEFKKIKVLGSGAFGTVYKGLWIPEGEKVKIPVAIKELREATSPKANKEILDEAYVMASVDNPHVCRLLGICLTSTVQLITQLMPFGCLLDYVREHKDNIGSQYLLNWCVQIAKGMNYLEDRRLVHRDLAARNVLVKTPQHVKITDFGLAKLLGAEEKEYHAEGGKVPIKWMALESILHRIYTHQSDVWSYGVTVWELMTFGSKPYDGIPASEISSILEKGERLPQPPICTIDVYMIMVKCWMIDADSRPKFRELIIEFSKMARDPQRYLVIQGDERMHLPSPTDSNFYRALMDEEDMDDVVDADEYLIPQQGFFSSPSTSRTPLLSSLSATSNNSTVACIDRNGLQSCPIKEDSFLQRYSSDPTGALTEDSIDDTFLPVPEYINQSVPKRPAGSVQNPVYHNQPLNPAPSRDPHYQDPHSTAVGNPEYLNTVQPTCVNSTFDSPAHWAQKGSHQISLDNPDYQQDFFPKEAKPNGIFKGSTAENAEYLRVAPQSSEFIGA

[10] = target: Epidermal growth factor receptor (Homo sapiens, UniProt P00533, L858R); assay: Inhibition of EGFR L858R mutant (unknown origin); format: protein assay
[11] = target: T2, Epidermal growth factor receptor; assay: Inhibition of EGFR deletion (746 to 750 residues) mutant (unknown origin); format: protein assay
Target sequence in this assay (P00533 25-1210 limits assumed, stated change not applied): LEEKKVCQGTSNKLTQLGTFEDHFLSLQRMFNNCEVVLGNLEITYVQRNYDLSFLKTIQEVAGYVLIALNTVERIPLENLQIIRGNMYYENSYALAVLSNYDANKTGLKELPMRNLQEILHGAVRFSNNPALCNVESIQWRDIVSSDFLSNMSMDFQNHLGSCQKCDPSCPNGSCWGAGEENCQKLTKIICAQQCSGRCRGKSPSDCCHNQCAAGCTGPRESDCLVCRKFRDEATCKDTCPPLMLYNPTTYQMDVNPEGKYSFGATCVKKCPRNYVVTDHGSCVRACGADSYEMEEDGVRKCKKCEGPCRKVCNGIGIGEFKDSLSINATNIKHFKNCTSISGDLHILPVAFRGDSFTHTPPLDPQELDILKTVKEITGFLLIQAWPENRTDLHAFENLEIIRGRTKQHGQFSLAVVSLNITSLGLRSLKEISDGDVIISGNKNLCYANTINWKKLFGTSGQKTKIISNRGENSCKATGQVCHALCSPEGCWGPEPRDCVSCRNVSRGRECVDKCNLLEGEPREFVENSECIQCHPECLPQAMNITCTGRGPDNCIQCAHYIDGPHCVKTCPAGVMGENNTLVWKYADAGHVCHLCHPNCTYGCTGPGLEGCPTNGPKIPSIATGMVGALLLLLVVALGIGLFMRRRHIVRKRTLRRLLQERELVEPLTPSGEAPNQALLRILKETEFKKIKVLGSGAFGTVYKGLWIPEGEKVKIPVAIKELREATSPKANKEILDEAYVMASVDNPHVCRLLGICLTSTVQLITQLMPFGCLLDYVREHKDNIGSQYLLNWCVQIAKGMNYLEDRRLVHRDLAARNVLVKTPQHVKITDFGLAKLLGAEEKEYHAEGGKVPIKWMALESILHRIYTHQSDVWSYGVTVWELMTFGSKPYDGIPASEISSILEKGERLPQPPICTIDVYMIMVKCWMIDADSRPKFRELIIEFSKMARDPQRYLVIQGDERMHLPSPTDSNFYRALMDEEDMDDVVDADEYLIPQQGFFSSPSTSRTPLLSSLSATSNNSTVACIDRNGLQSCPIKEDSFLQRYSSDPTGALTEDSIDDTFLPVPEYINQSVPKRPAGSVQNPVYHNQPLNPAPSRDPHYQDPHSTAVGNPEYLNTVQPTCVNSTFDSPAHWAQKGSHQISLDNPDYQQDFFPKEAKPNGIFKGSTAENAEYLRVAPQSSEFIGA

[12] = target: T2, Epidermal growth factor receptor; assay: Inhibition of EGFR T790M/deletion (746 to 750 residues) mutant (unknown origin); format: protein assay
Target sequence in this assay (P00533 25-1210 limits assumed, stated change not applied): as above

Hepatocyte [13] = assay: Drug metabolism in rat hepatocytes assessed as glucuronidation; format: ADME, cell-based
Hepatocyte [14] = assay: Drug metabolism in human hepatocytes assessed as glucuronidation; format: ADME, cell-based
[15] = Kinetic solubility of compound; format: physicochemical; conditions: read-out: Kinetic_solubility
[16] = target: Proto-oncogene tyrosine-protein kinase Src (Homo sapiens) (UniProt P12931); assay: Inhibition of SRC (unknown origin) at 1000 nM
[17] = tested on: RAF proto-oncogene serine/threonine-protein kinase (Homo sapiens), P04049 [Y340D,Y341D]; assay: Inhibition of RAF1 Y340D/Y341D double mutant (unknown origin) at 1000 nM
[18] = target: Tyrosine-protein kinase Lck (Homo sapiens) (UniProt P06239); assay: Inhibition of LCK (unknown origin) at 1000 Nm
[19] = target: Dual specificity mitogen-activated protein kinase kinase 1 (Homo sapiens) (UniProt Q02750); assay: Inhibition of MEK1 (unknown origin) at 1000 nM
[20] = target: Vascular endothelial growth factor receptor 2 (Homo sapiens) (UniProt P35968); assay: Inhibition of KDR (unknown origin) at 1000 nM
[21] = target: Tyrosine-protein kinase JAK2 (Homo sapiens) (UniProt O60674); assay: Inhibition of JAK2 (unknown origin) at 1000 nM
[22] = target: T3, Inhibitor of nuclear factor kappa-B kinase subunit epsilon (Homo sapiens) (UniProt Q14164); assay: Inhibition of IKKepsilon (unknown origin) at 1000 nM
T3 sequence (whole entry): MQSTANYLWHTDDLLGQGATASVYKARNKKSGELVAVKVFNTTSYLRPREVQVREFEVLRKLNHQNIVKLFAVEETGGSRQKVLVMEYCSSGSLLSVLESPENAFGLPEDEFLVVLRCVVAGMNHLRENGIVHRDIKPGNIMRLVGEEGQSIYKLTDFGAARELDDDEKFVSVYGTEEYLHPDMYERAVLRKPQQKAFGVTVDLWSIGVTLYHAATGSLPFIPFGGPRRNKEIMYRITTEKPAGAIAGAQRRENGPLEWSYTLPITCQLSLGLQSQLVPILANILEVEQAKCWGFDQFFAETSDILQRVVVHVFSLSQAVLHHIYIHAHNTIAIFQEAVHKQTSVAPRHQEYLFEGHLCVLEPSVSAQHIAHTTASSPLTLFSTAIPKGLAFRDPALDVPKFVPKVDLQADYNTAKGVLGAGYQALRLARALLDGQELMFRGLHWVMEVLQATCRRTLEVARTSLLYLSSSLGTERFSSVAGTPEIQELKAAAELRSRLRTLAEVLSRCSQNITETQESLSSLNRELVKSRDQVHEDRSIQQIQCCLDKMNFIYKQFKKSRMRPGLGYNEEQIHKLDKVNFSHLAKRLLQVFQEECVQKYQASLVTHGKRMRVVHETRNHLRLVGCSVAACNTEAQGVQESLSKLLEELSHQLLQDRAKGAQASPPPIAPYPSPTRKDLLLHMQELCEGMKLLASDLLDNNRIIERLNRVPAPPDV

[23] = target: Receptor-type tyrosine-protein kinase FLT3 (Homo sapiens) (UniProt P36888); assay: Inhibition of FLT3 (unknown origin) at 1000 nM
[24] = target: Receptor tyrosine-protein kinase erbB-4 (Homo sapiens) (UniProt Q15303); assay: Inhibition of ERBB4 (unknown origin) at 1000 nM
[25] = target: Aurora kinase B (Homo sapiens) (UniProt Q96GD4); assay: Inhibition of Aurora B (unknown origin) at 1000 nM
[26] = target: CDK2/Cyclin A2 (Homo sapiens) (UniProt P24941+P20248); assay: Inhibition of CDK2/cyclinA (unknown origin) at 1000 nM; format: protein-complex assay
[27] = tested on: Epidermal growth factor receptor (Homo sapiens), P00533 [L858R,T790M]; assay: Inhibition of EGFR T790M/L858R double mutant (unknown origin) at 1000 nM; format: protein assay
[28] = target: Mitogen-activated protein kinase 1 (Homo sapiens) (UniProt P28482); assay: Inhibition of ERK2 (unknown origin) at 1000 nM
[29] = target: Receptor tyrosine-protein kinase erbB-2 (Homo sapiens) (UniProt P04626); assay: Inhibition of ERBB2 (unknown origin) at 1000 nM
[30] = target: High affinity nerve growth factor receptor (Homo sapiens) (UniProt P04629); assay: Inhibition of TRKA (unknown origin) at 1000 nM
[31] = target: Ribosomal protein S6 kinase beta-1 (Homo sapiens) (UniProt P23443); assay: Inhibition of p70S6K(unknown origin) at 1000 nM
[32] = Drug excretion in iv dosed rat bile assessed as glucuronide metabolite; format: ADME, organism-based; conditions: in vivo
[33] = Drug excretion in iv dosed rat bile assessed as oxidative metabolite; format: ADME, organism-based; conditions: in vivo
[34] = Drug excretion in iv dosed rat urine assessed as glucuronide metabolite; format: ADME, organism-based; conditions: in vivo
[35] = Drug excretion in iv dosed rat urine assessed as oxidative metabolite; format: ADME, organism-based; conditions: in vivo
[36] = target: Serine/threonine-protein kinase Chk1 (Homo sapiens) (UniProt O14757); assay: Inhibition of CHK1 (unknown origin) at 1000 nM

T1 sequence (P00533 25-1210 T790M/L858R limits assumed): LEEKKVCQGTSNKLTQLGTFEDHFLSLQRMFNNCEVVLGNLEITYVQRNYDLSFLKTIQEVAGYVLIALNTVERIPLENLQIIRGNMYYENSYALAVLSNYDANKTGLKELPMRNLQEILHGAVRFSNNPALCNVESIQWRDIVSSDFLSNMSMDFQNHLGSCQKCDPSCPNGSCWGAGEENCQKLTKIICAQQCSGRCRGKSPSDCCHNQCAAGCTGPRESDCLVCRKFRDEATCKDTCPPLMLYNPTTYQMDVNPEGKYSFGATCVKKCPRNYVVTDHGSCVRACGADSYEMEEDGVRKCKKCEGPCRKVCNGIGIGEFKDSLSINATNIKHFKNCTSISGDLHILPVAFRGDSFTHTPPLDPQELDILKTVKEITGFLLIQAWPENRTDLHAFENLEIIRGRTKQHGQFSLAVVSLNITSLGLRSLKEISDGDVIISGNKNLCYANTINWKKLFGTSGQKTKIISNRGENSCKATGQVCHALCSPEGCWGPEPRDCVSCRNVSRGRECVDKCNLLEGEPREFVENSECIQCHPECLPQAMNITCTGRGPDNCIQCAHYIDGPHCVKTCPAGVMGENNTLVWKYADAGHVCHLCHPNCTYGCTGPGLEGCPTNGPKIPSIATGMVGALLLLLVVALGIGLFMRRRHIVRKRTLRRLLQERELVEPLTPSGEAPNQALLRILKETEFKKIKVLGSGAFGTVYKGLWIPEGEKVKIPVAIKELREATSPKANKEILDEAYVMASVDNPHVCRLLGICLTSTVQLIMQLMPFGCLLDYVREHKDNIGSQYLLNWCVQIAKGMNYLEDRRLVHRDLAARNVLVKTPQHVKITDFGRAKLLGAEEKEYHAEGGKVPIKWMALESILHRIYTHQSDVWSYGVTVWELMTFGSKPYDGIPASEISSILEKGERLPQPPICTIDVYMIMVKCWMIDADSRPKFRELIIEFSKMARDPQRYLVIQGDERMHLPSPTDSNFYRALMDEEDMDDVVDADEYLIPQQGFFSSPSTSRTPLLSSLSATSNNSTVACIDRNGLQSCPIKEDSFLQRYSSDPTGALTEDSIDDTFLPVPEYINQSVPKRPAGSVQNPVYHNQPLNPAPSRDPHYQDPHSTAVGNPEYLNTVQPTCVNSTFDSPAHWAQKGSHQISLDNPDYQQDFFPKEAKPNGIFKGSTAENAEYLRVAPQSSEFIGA
Sequence of Epidermal growth factor receptor (Homo sapiens, UniProt P00533, L858R) (P00533 25-1210 L858R limits assumed): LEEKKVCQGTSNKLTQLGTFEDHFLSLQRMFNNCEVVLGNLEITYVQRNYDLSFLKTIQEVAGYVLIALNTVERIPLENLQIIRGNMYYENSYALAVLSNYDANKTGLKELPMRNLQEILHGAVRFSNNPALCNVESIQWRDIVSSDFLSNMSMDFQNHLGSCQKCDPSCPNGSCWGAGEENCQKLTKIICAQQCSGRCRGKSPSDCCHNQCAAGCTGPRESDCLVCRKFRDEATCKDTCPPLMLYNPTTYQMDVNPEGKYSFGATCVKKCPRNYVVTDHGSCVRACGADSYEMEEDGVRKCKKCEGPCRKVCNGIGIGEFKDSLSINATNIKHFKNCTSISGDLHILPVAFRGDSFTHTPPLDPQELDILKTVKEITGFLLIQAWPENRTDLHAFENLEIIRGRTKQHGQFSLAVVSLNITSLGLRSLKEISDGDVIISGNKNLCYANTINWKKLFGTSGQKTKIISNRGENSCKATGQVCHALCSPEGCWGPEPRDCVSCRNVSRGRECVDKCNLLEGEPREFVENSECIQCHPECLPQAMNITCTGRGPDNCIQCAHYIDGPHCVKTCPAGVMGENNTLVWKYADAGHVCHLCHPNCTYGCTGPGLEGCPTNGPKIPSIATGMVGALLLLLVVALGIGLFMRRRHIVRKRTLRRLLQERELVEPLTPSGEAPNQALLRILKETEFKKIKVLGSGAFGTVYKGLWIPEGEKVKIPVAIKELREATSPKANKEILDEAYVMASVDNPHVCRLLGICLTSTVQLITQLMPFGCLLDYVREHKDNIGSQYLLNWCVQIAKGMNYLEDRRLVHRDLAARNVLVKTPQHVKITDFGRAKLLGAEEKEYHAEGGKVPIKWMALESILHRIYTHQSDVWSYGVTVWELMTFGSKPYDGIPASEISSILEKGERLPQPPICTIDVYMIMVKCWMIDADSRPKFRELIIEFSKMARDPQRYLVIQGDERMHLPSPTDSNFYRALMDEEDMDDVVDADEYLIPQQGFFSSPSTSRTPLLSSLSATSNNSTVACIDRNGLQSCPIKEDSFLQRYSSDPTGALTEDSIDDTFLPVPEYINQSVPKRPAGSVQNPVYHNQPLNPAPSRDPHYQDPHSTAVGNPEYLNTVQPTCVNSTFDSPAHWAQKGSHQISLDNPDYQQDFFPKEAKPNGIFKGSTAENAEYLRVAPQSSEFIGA

CC1(C)OCc2c(Nc3n[nH]c4c(F)cc(F)cc34)nc(-c3cn[nH]c3)nc21
Ki [1]: 10.4 nM

CC1(C)OCc2c(Nc3n[nH]c4cc(C(F)(F)F)ccc34)nc(-c3cn[nH]c3)nc21
clearance [2]: 91 mL/min/kg
efflux ratio [3]: 1.5
Papp A→B [4]: 10.3 ×10⁻⁶ cm/s
Ki [1]: > 2000 nM
Vd [5]: 1.2 L/kg

Cc1cc(Nc2nc(-c3cn[nH]c3)nc3c2COC3(C)C)n[nH]1
Ki [1]: 844 nM

CC1(C)OCc2c(Nc3n[nH]c4ccccc34)nc(-c3cc[nH]n3)nc21
Ki [1]: 175 nM

CC1(C)OCc2c(Nc3n[nH]c4ccncc34)nc(-c3cn[nH]c3)nc21
Ki [1]: > 2000 nM

CC1(C)OCc2c(Nc3n[nH]c4cc(F)ccc34)nc(-c3cn[nH]c3)nc21
Ki [1]: 2 nM

Cn1nccc1-c1nc(Nc2n[nH]c3ccccc23)c2c(n1)C(C)(C)OC2
IC50 [6]: 3000 nM
clearance [2]: 38 mL/min/kg
efflux ratio [3]: 0.9
Papp A→B [4]: 12.9 ×10⁻⁶ cm/s
Ki [1]: 34.3 nM
Vd [5]: 2.3 L/kg
bioavailability [7]: 117%
AUC [8]: 7.5 µM·h
fAUC (Rattus norvegicus): 0.23 µM·h
Ki [9]: 1.1 nM
Ki [10]: < 0.5 nM
Ki [11]: < 0.5 nM
Ki [12]: 21.3 nM

Cn1nc(Nc2nc(-c3cn[nH]c3)nc3c2COC3(C)C)c2cccc(F)c21
clearance [2]: 60 mL/min/kg
Ki [1]: 57 nM
Vd [5]: 1.5 L/kg

CC1(C)OCc2c(Nc3n[nH]c4ccc(F)cc34)nc(-c3cn[nH]c3)nc21
clearance [2]: 81 mL/min/kg
Ki [1]: 8 nM
Vd [5]: 6.8 L/kg
Drug metabolism (Hepatocyte [13]): metabolite_detected
Drug metabolism (Hepatocyte [14]): metabolite_detected

CC1(C)OCc2c(Nc3n[nH]c4c(Cl)cc(F)cc34)nc(-c3cn[nH]c3)nc21
Ki [1]: 16 nM

CC1(C)OCc2c(Nc3nsc4ccccc34)nc(-c3cn[nH]c3)nc21
Ki [1]: 747 nM

CC1(C)OCc2c(Nc3n[nH]c4c(C(F)(F)F)cccc34)nc(-c3cn[nH]c3)nc21
clearance [2]: 27 mL/min/kg
efflux ratio [3]: 1.3
Papp A→B [4]: 8.5 ×10⁻⁶ cm/s
Ki [1]: 134 nM
Vd [5]: 2.4 L/kg
bioavailability [7]: 5%
AUC [8]: 0.36 µM·h
fAUC (Rattus norvegicus): 0.03 µM·h
Drug metabolism (Hepatocyte [13]): metabolite_detected
Drug metabolism (Hepatocyte [14]): metabolite_detected
solubility kinetic [15]: 3 µM (≈ 1.25 µg/mL)

CN(c1nc(-c2cn[nH]c2)nc2c1COC2(C)C)c1n[nH]c2ccccc12
Ki [1]: 519 nM

CC1(C)OCc2c(Nc3n[nH]c4ccccc34)nc(-c3c[nH]nn3)nc21
Ki [1]: 732 nM

CC1(C)OCc2c(C(=O)c3n[nH]c4ccccc34)nc(-c3cn[nH]c3)nc21
Ki [1]: 104 nM

CC1(C)OCc2c(Oc3n[nH]c4ccccc34)nc(-c3cn[nH]c3)nc21
Ki [1]: 85 nM

CC1(C)OCc2c(Nc3c[nH]c4ccccc34)nc(-c3cn[nH]c3)nc21
Ki [1]: 17 nM

CC1(C)OCc2c(Nc3n[nH]c4c(F)cccc34)nc(-c3cn[nH]c3)nc21
Ki [1]: 3 nM

CC1(C)OCc2c(Nc3n[nH]c4ccccc34)nc(-c3cscn3)nc21
Ki [1]: 5.6 nM

CC1(C)OCc2c(Nc3n[nH]c4cccc(F)c34)nc(-c3cn[nH]c3)nc21
Ki [1]: 17 nM

CC1(C)OCc2c(Nc3nc4ccccc4s3)nc(-c3cn[nH]c3)nc21
Ki [1]: > 2000 nM

CC1(C)OCc2c(Nc3n[nH]c4cc(Cl)ccc34)nc(-c3cn[nH]c3)nc21
Ki [1]: 22.4 nM

CC1(C)OCc2c(Nc3n[nH]c(Cl)c3Cl)nc(-c3cn[nH]c3)nc21
Ki [1]: 389 nM

CC1(C)OCc2c(Nc3n[nH]c4c3CCCC4)nc(-c3cn[nH]c3)nc21
Ki [1]: > 2000 nM

CC1(C)OCc2c(Nc3n[nH]c4c(Cl)cccc34)nc(-c3cn[nH]c3C(F)F)nc21
inhibition [16]: 47.6%
inhibition [17]: 38.4%
inhibition [18]: 85.7%
inhibition [19]: -4.5%
inhibition [20]: 96.4%
inhibition [21]: 10.1%
inhibition [22]: 1.9%
inhibition [23]: 38.1%
inhibition [24]: 97%
inhibition [25]: -7%
inhibition [26]: -4%
inhibition [27]: 90.8%
inhibition [28]: 4.5%
inhibition [29]: 91.8%
inhibition [30]: 15.3%
inhibition [31]: 2.7%
IC50 [6]: 370 nM
Drug excretion [32]: metabolite_detected
Drug excretion [33]: metabolite_detected
Drug excretion [34]: metabolite_detected
Drug excretion [35]: metabolite_detected
clearance [2]: 36 mL/min/kg
efflux ratio [3]: 0.7
Papp A→B [4]: 8.4 ×10⁻⁶ cm/s
Ki [1]: 9 nM
Vd [5]: 3.3 L/kg
bioavailability [7]: 62%
AUC [8]: 3.4 µM·h
fAUC (Rattus norvegicus): 0.09 µM·h
solubility kinetic [15]: 3 µM (≈ 1.3 µg/mL)
Ki [9]: 6.5 nM
Ki [10]: 3.4 nM
Ki [11]: 1.7 nM
Ki [12]: 2.5 nM
inhibition [36]: 6.9%

CC1(C)OCc2c(Nc3n[nH]c4c(Cl)c(F)ccc34)nc(-c3cn[nH]c3)nc21
clearance [2]: 60 mL/min/kg
efflux ratio [3]: 1.1
Papp A→B [4]: 7.3 ×10⁻⁶ cm/s
Ki [1]: 4 nM
Vd [5]: 5.5 L/kg
